# Data from patent publication US9201014B2, “Development of photostable near-IR cyanine dyes for in vivo imaging” (National University of Singapore, priority 2010, dated 2015).
# Experiments:
# Format in all cases: physicochemical
# [1] = Absorbance/fluorescence maxima, quantum yields and extinction coefficients of CyN compounds
# Procedure: The absorbance and fluorescence maximum wavelengths and extinction coefficients of CyN-111, 165, 272 and 295 were measured using 10-μM solutions of CyN-111, CyN-165, CyN-272 or CyN-295 in 10 mM HEPES buffer (pH 7.4) containing 1% DMSO. Quantum yields were measured in DMSO, using Cardiogreen as a standard (φ: 0.13, in DMSO).
# [2] = Time-course fluorescence measurements (photobleaching rate constants) of CyN and CyNA derivatives in HEPES buffer; conditions: for k, rate of photobleaching: 10 μM in 10 mM HEPES pH 7.4, 1% DMSO, pseudo-first order; for kCyN/kCyNA: ratio of photobleaching rate constants, aqueous media
# Procedure: Values were fitted to a non-linear regression one-phase exponential decay (GraphPad Prism 5.0). Detailed statistics for the one-phase decay analysis of the CyN compounds and 1 follow: Photodecomposition rate constants were determined by plotting -ln(F/F0) vs time, and calculated using a pseudo-first order rate equation. See […]., et al., Photochem. Photobiol. 2000, 72, 392-398.
# [3] = Absorbance and fluorescence maximum wavelengths and quantum yields of the CyNA library; conditions: for λabs, absorbance maximum wavelength / λem, fluorescence maximum wavelength: CyNA library; for φ, quantum yield: in DMSO, Cardiogreen as standard
# In short: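 Absorption and emission maxima and quantum yields of the 80-member amine-derivatized CyNA library were measured on a plate spectrophotometer.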
# [4] = Primary screening of photostability of the CyNA library (time-course fluorescence, 8 h); design: F/Fo, fluorescent intensity at 8 hours vs 0 hours: unit: %; conditions: 10 μM in HEPES 100 mM pH 7.4, 2% DMSO
# In short: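 CyNA dyes at 10 μM in 100 mM HEPES pH 7.4 with 2% DMSO irradiated by xenon lamp for 8 h. Fluorescence (ex/em 790-820 nm) read every 10 min; stability given as F8h/Fo.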
# [5] = Characterization of the CyNAMLA library (absorbance maximum wavelengths); conditions: absorbance maximum wavelength of CyNAMLA library compounds
# Procedure: The amine group of 21 was protected using di-tert-butyl dicarbonate then derivatized with 80 different primary amines (for structures, see FIGS. 14A-14D). After acetylation of the newly-introduced amine, the compounds were treated with a solution of TFA-DCM (1:9) to remove the tert-butylcarbamate protecting group. The deprotected amine was then coupled to lipoic acid to yield CyNAMLA derivatives with an average purity of 90% (for HPLC-determined purities, see Table 6).
# [6] = Primary screen of SERS intensities of CyNAMLA-functionalized AuNPs (compact Raman scanner); conditions: SERS spectra of CyNAMLA-functionalized AuNPs; excitation at 785 nm, laser power 60 mW
# Procedure: FIG. 15 is a graph of the comparative surface-enhanced Raman spectroscopy (SERS) intensities of members of the CyNAMLA library measured with an excitation wavelength of 785 nm and a laser power of 60 mW in a compact Raman scanner.
# The CyNAMLA compounds were adsorbed onto AuNPs having a diameter of approximately 60 nm, and the SERS properties of the resulting CyNAMLA-functionalized AuNPs were evaluated using a compact Raman scanner. Among metal nanoparticles, AuNPs are particularly suitable for in vivo applications due to their low toxicity, adaptability to bioconjugation, and reproducible signal intensity and quantification.
# [7] = Photobleaching of CyNE790 and ICG-sulfo-OSu in PBS; conditions: photobleaching experiments
# From the text: CyNE790 was also compared to ICG-sulfo-OSu, a commercially available succinimidyl ester of ICG (for chemical structures of CyNE790 and ICG-sulfo-OSu, see FIG. 8).
# [8] = Photophysical properties of CyNE790 and ICG-sulfo-OSu
# Procedure: FIG. 7A is an absorbance spectrum of 10-μM solutions of CyNA-414, CyNE790, ICG and ICG-sulfo-OSu in DMSO and PBS.
# FIG. […]
# After corroborating the spectral properties of CyNE790 as a fluorescent NIR dye, its applicability for protein conjugation was assessed by comparing CyNE790 to ICG-sulfo-OSu, the commercially available succinidimyl ester of ICG. […] However, the application of ICG to molecular imaging has been limited because its fluorescence is drastically quenched after protein conjugation.
# [9] = Formation of aggregates: absorbance spectrum in DMSO vs PBS
# [10] = 10 μM in 10 mM HEPES pH 7.4, 1% DMSO
compound,measurement,setting,value
CCCN1/C(=C/C=C2\CCCC(/C=C/C3=[N+](CCC)c4ccccc4C3(C)C)=C2NCCCOC)C(C)(C)c2ccccc21.[I-] [CyN-165],"ε, extinction coefficient",[1]; [10],0.352 · 10^5 cm^−1M^−1
same,λabs,[1]; [10],640 nm
same,λem,[1]; [10],762 nm
same,"φ, quantum yield","[1]; in DMSO, Cardiogreen as standard",0.37
same,"k, rate of photobleaching",[2],3.49e-05 s⁻¹
CCCN1/C(=C/C=C2\CCCC(/C=C/C3=[N+](CCC)c4ccccc4C3(C)C)=C2N(CCc2ccccn2)C(C)=O)C(C)(C)c2ccccc21.[I-] [CyNA-111],"k, rate of photobleaching",[2],3.41e-06 s⁻¹
same,kCyN/kCyNA,[2],12
same,"λabs, absorbance maximum wavelength",[3],804 nm
same,"λem, fluorescence maximum wavelength",[3],818 nm
same,"φ, quantum yield",[3],0.11
same,"F/Fo, fluorescent intensity at 8 hours vs 0 hours",[4],96
same,"max RFU, maximum relative fluorescence units",[4],565.6
CCCN1/C(=C/C=C2\CCCC(/C=C/C3=[N+](CCC)c4ccccc4C3(C)C)=C2N(CCCOC)C(C)=O)C(C)(C)c2ccccc21.[I-] [CyNA-165],"k, rate of photobleaching",[2],4.53e-06 s⁻¹
same,kCyN/kCyNA,[2],8
same,"λabs, absorbance maximum wavelength",[3],806 nm
same,"λem, fluorescence maximum wavelength",[3],821 nm
same,"φ, quantum yield",[3],0.09
same,"F/Fo, fluorescent intensity at 8 hours vs 0 hours",[4],94
same,"max RFU, maximum relative fluorescence units",[4],775.1
CCCN1/C(=C/C=C2\CCCC(/C=C/C3=[N+](CCC)c4ccccc4C3(C)C)=C2N(CC)C(C)=O)C(C)(C)c2ccccc21.[I-] [CyNA-295],"k, rate of photobleaching",[2],3.81e-06 s⁻¹
same,kCyN/kCyNA,[2],8
same,"λabs, absorbance maximum wavelength",[3],806 nm
same,"λem, fluorescence maximum wavelength",[3],820 nm
same,"φ, quantum yield",[3],0.11
same,"F/Fo, fluorescent intensity at 8 hours vs 0 hours",[4],100
same,"max RFU, maximum relative fluorescence units",[4],698.6
CCCN1/C(=C/C=C2\CCCC(/C=C/C3=[N+](CCCNC(=O)CCCCC4CCSS4)c4ccccc4C3(C)C)=C2N(CCc2ccc(OC)cc2)C(C)=O)C(C)(C)c2ccccc21.O=C([O-])C(F)(F)F (stereo not shown) [CyNAMLA-395],λabs (max),[5],805 nm
same,Raman intensity,[6],1876
CCCN1/C(=C/C=C2\CCCC(/C=C/C3=[N+](CCCNC(=O)CCCCC4CCSS4)c4ccccc4C3(C)C)=C2N(Cc2cccc(C)c2)C(C)=O)C(C)(C)c2ccccc21.O=C([O-])C(F)(F)F (stereo not shown) [CyNAMLA-398],λabs (max),[5],805 nm
same,Raman intensity,[6],2629
CCCN1/C(=C/C=C2\CCCC(/C=C/C3=[N+](CCCNC(=O)CCCCC4CCSS4)c4ccccc4C3(C)C)=C2N(Cc2ccccn2)C(C)=O)C(C)(C)c2ccccc21.O=C([O-])C(F)(F)F (stereo not shown) [CyNAMLA-401],λabs (max),[5],804 nm
same,Raman intensity,[6],2920
CCCN1/C(=C/C=C2\CCCC(/C=C/C3=[N+](CCCNC(=O)CCCCC4CCSS4)c4ccccc4C3(C)C)=C2N(CCc2cccc(F)c2)C(C)=O)C(C)(C)c2ccccc21.O=C([O-])C(F)(F)F (stereo not shown) [CyNAMLA-405],λabs (max),[5],805 nm
same,Raman intensity,[6],12149
CCCCCCCCCCN(C(C)=O)C1=C(/C=C/C2=[N+](CCCNC(=O)CCCCC3CCSS3)c3ccccc3C2(C)C)CCC/C1=C\C=C1\N(CCC)c2ccccc2C1(C)C.O=C([O-])C(F)(F)F (stereo not shown) [CyNAMLA-407],λabs (max),[5],806 nm
same,Raman intensity,[6],3000
CCCN1/C(=C/C=C2\CCCC(/C=C/C3=[N+](CCCNC(=O)CCCCC4CCSS4)c4ccccc4C3(C)C)=C2N(CCCN(C)C)C(C)=O)C(C)(C)c2ccccc21.O=C([O-])C(F)(F)F (stereo not shown) [CyNAMLA-427],λabs (max),[5],805 nm
same,Raman intensity,[6],1735
CCCN1/C(=C/C=C2\CCCC(/C=C/C3=[N+](CCCNC(=O)CCCCC4CCSS4)c4ccccc4C3(C)C)=C2N(CCc2ccccc2F)C(C)=O)C(C)(C)c2ccccc21.O=C([O-])C(F)(F)F (stereo not shown) [CyNAMLA-477],λabs (max),[5],804 nm
same,Raman intensity,[6],9679
CCCN1/C(=C/C=C2\CCCC(/C=C/C3=[N+](CCCNC(=O)CCCCC4CCSS4)c4ccccc4C3(C)C)=C2N(Cc2ccc(Cl)cc2Cl)C(C)=O)C(C)(C)c2ccccc21.O=C([O-])C(F)(F)F (stereo not shown) [CyNAMLA-531],λabs (max),[5],805 nm
same,Raman intensity,[6],5272
CCCN1/C(=C/C=C2\CCCC(/C=C/C3=[N+](CCCNC(=O)CCCCC4CCSS4)c4ccccc4C3(C)C)=C2N(Cc2ccc(Cl)c(Cl)c2)C(C)=O)C(C)(C)c2ccccc21.O=C([O-])C(F)(F)F (stereo not shown) [CyNAMLA-565],λabs (max),[5],805 nm
same,Raman intensity,[6],14019
CCCN1/C(=C/C=C2\CCCC(/C=C/C3=[N+](CCCNC(=O)CCCCC4CCSS4)c4ccccc4C3(C)C)=C2N(CC(C)CC)C(C)=O)C(C)(C)c2ccccc21.O=C([O-])C(F)(F)F (stereo not shown) [CyNAMLA-574],λabs (max),[5],804 nm
same,Raman intensity,[6],1763
CCCN1/C(=C/C=C2\CCCC(/C=C/C3=[N+](CCCNC(=O)CCCCC4CCSS4)c4ccccc4C3(C)C)=C2N(CCc2ccccc2-c2ccccc2)C(C)=O)C(C)(C)c2ccccc21.O=C([O-])C(F)(F)F (stereo not shown) [CyNAMLA-599],λabs (max),[5],804 nm
same,Raman intensity,[6],11616
CCCN1/C(=C/C=C2\CCCC(/C=C/C3=[N+](CCCNC(=O)CCCCC4CCSS4)c4ccccc4C3(C)C)=C2N(CCCN2CCCC2)C(C)=O)C(C)(C)c2ccccc21.O=C([O-])C(F)(F)F (stereo not shown) [CyNAMLA-611],λabs (max),[5],804 nm
same,Raman intensity,[6],18833
CCCN1/C(=C/C=C2\CCCC(/C=C/C3=[N+](CCCNC(=O)CCCCC4CCSS4)c4ccccc4C3(C)C)=C2N(CCc2ccc(Cl)cc2)C(C)=O)C(C)(C)c2ccccc21.O=C([O-])C(F)(F)F (stereo not shown) [CyNAMLA-677],λabs (max),[5],805 nm
same,Raman intensity,[6],2455
CCCN1/C(=C/C=C2\CCCC(/C=C/C3=[N+](CCCNC(=O)CCCCC4CCSS4)c4ccccc4C3(C)C)=C2N(CCc2ccc(Cl)cc2Cl)C(C)=O)C(C)(C)c2ccccc21.O=C([O-])C(F)(F)F (stereo not shown) [CyNAMLA-686],λabs (max),[5],806 nm
same,Raman intensity,[6],8146
"CC1(C)C(/C=C/C=C/C=C/C=C2\N(CCCCS(=O)(=O)[O-])c3ccc4ccccc4c3C2(C)C)=[N+](CCCCCC(=O)ON2C(=O)CC(S(=O)(=O)[O-])C2=O)c2ccc3ccccc3c21.[Na+] (stereo not shown) [ICG-sulfo-OSu, reference compound]",maximum relative fluorescence units (rfu),[7],136 rfu
same,Quantum Yield (DMSO),"[8]; DMSO, ICG as standard",12%
same,Quantum Yield (aqueous media),"[8]; PBS pH 7.3, 0.1% DMSO",0.4%
same,ε (aqueous media),"[8]; PBS pH 7.3, 0.1% DMSO","42,000 M^−1 · cm^−1"
same,absorbance maximum in DMSO,"[9]; 10 μM, DMSO",780 nm
same,absorbance maximum in PBS,"[9]; 10 μM, PBS",695 nm
same,formation of aggregates in aqueous solution,[9]; spectral profile DMSO vs PBS,formation of aggregates
